According to patent US11759464B2, “Gonadotropin-releasing hormone antagonist dosing regimens for treating uterine fibroids and reducing menstrual blood loss” (ObsEva S.A., priority 2017, dated 2023):

How the values were obtained:
Assay type in all cases: in vivo
[1] = test system: healthy human female subjects; test: menstrual bleeding pattern (amenorrhea) during treatment; settings: for Amenorrhea (no bleeding), subjects / Amenorrhea + spotting only, subjects: last 4 weeks of treatment
Description: To assess the effects of compound (II) on serum β17-estradiol concentration and menstrual blood loss, a total of 75 healthy human female subjects were divided into five treatment groups, as described in Table 1, below. The subjects were screened for a period of four weeks prior to the commencement of treatment with compound (II). At the conclusion of the four week screening period, the subjects in each treatment arm were administered an equivalent dosage of norethindrone acetate of 5 mg×3 times daily. This 15 mg/day dosage was administered for a total of 11 days so as to allow synchronization of menses among the subjects. The subjects were subsequently not treated for the ensuing 4 days. Following this withdrawal period, the subjects were treated with compound (II), with or without add-back therapy, once daily for 42 days according to the dosages set forth in Table 1. Following the 42-day treatment cycle, the subjects were further monitored for a period of 13 days. To assess the effects of compound (II) on menstrual blood loss, the volume of menstrual blood lost by each subject was evaluated over the course of the entirety of the study, including the 11-day screening period, 4-day withdrawal period, 42-treatment period, and 13-day post-treatment evaluation period. Assessment of menstrual blood loss was conducted using an electronic diary method, as subjects recorded daily whether their bleeding for each day was heavy, moderate, or light spotting.

[2] = test system: healthy human female subjects; test: serum β17-estradiol (E2) concentration during 42-day once-daily treatment
Description: To assess the effects of compound (II) on serum β17-estradiol concentration and menstrual blood loss, a total of 75 healthy human female subjects were divided into five treatment groups, as described in Table 1, below. The subjects were screened for a period of four weeks prior to the commencement of treatment with compound (II). At the conclusion of the four week screening period, the subjects in each treatment arm were administered an equivalent dosage of norethindrone acetate of 5 mg×3 times daily. This 15 mg/day dosage was administered for a total of 11 days so as to allow synchronization of menses among the subjects. The subjects were subsequently not treated for the ensuing 4 days. Following this withdrawal period, the subjects were treated with compound (II), with or without add-back therapy, once daily for 42 days according to the dosages set forth in Table 1. Following the 42-day treatment cycle, the subjects were further monitored for a period of 13 days. As used herein, the add-back regime of 1.0 mg/day β17-estradiol and 0.5 mg/day norethindrone acetate is referred to as the “high-dose” or […] add-back dosage, while the add-back regime of 0.5 mg/day β17-estradiol and 0.1 mg/day norethindrone acetate was referred to as the “low-dose” or “LD” add-back dosage. This labeling convention is used throughout this Example and is additionally referred to in the Figures.

[3] = test system: healthy human female subjects; test: biomarkers of bone mineral density (creatinine-normalized deoxypyridinoline); settings: 100 mg/day + 1.0 mg/day E2 and 0.5 mg/day norethindrone acetate, urine (FIG. 25)
Description: To assess the effects of compound (II) on serum β17-estradiol concentration and menstrual blood loss, a total of 75 healthy human female subjects were divided into five treatment groups, as described in Table 1, below. The subjects were screened for a period of four weeks prior to the commencement of treatment with compound (II). At the conclusion of the four week screening period, the subjects in each treatment arm were administered an equivalent dosage of norethindrone acetate of 5 mg×3 times daily. This 15 mg/day dosage was administered for a total of 11 days so as to allow synchronization of menses among the subjects. The subjects were subsequently not treated for the ensuing 4 days. Following this withdrawal period, the subjects were treated with compound (II), with or without add-back therapy, once daily for 42 days according to the dosages set forth in Table 1. Following the 42-day treatment cycle, the subjects were further monitored for a period of 13 days. In addition to assessing the ability of compound (II) to modulate serum E2 and progesterone levels and to curtail menstrual bleeding, compound (II) was evaluated for its effects on biomarkers of bone mineral density (FIGS. 25-29). These markers include creatinine-normalized deoxypyridinoline (DPD), which is excreted in larger quantities when bone resorption is increased.

[4] = 100 mg daily + add-back E2/NETA 0.5 mg/0.1 mg
[5] = 100 mg daily + add-back E2/NETA 0.5 mg/0.1 mg, listed as compound (II)
[6] = 100 mg daily + add-back E2/NETA 1 mg/0.5 mg
[7] = 100 mg daily + add-back E2/NETA 1 mg/0.5 mg, listed as compound (II)
[8] = 100 mg daily, no add-back, listed as compound (II)
[9] = 200 mg daily + add-back E2/NETA 1 mg/0.5 mg
[10] = 200 mg daily + add-back E2/NETA 1 mg/0.5 mg, listed as compound (II)
[11] = 200 mg daily, no add-back, listed as compound (II)

COc1cc(F)c(-n2c(=O)[nH]c3csc(C(=O)O)c3c2=O)cc1OCc1c(OC)ccc(F)c1F [Compound (II), choline 3-[2-fluoro-5-(2,3-difluoro-6-methoxybenzyloxy)-4-methoxyphenyl]-2,4-dioxo-1,2,3,4-tetrahydrothieno [3,4d]pyrimidine-5-carboxylate]
Amenorrhea (no bleeding), subjects [1, 4]: 21%
Amenorrhea + spotting only, subjects [1, 4]: 57%
Amenorrhea (no bleeding), subjects [1, 5]: at least 21%
Amenorrhea + spotting only, subjects [1, 5]: at least 57%
Amenorrhea (no bleeding), subjects [1, 6]: 53%
Amenorrhea + spotting only, subjects [1, 6]: 93%
Amenorrhea (no bleeding), subjects [1, 7]: at least 53%
Amenorrhea + spotting only, subjects [1, 7]: at least 93%
Amenorrhea (no bleeding), subjects ([1]; 100 mg daily, no add-back): 86%
Amenorrhea + spotting only, subjects ([1]; 100 mg daily, no add-back): 93%
Amenorrhea (no bleeding), subjects [1, 8]: at least 86%
Amenorrhea + spotting only, subjects [1, 8]: at least 93%
Amenorrhea (no bleeding), subjects [1, 9]: 33%
Amenorrhea + spotting only, subjects [1, 9]: 60%
Amenorrhea (no bleeding), subjects [1, 10]: at least 33%
Amenorrhea + spotting only, subjects [1, 10]: at least 60%
Amenorrhea (no bleeding), subjects ([1]; 200 mg daily, no add-back): 87%
Amenorrhea + spotting only, subjects ([1]; 200 mg daily, no add-back): 100%
Amenorrhea (no bleeding), subjects [1, 11]: at least 87%
Amenorrhea + spotting only, subjects [1, 11]: 100%
effect on menstrual bleeding ([1]; 100 or 200 mg/day with or without add-back (FIGS. 20-24)): capable of inducing sustained amenorrhea
Median E2 level, E2 Week 1 ([2]; 100 mg daily + add-back E2/NETA 0.5 mg/0.1 mg, n = 14, after week 1): 25 pg/mL
Median E2 level, E2 Week 6 ([2]; 100 mg daily + add-back E2/NETA 0.5 mg/0.1 mg, n = 14, after week 6): 40 pg/mL
Median E2 level, E2 Week 1 ([2]; 100 mg daily + add-back E2/NETA 1 mg/0.5 mg, n = 15, after week 1): 35 pg/mL
Median E2 level, E2 Week 6 ([2]; 100 mg daily + add-back E2/NETA 1 mg/0.5 mg, n = 15, after week 6): 34 pg/mL
Median E2 level, E2 Week 1 ([2]; 100 mg daily, no add-back, n = 14, after week 1): 12 pg/mL
Median E2 level, E2 Week 6 ([2]; 100 mg daily, no add-back, n = 14, after week 6): 18 pg/mL
E2 levels, majority of subjects ([2]; 100 mg/day without add-back, each of days 8, 15 and 22): less than 20 μg/ml
Median E2 level, E2 Week 1 ([2]; 200 mg daily + add-back E2/NETA 1 mg/0.5 mg, n = 15, after week 1): 27 pg/mL
Median E2 level, E2 Week 6 ([2]; 200 mg daily + add-back E2/NETA 1 mg/0.5 mg, n = 15, after week 6): 25 pg/mL
Median E2 level, E2 Week 1 ([2]; 200 mg daily, no add-back, n = 14, after week 1): 5 pg/mL
Median E2 level, E2 Week 6 ([2]; 200 mg daily, no add-back, n = 14, after week 6): 3 pg/mL
serum E2 concentrations, all subjects ([2]; 200 mg/day stand-alone arm, each of days 8, 15, 22, 29 and 36): less than 20 μg/ml
effect on median serum E2 levels ([2]; 100 or 200 mg/day, 42-day treatment cycle (FIG. 1)): reduced in a dose-dependent manner
creatinine-normalized deoxypyridinoline (DPD), comparison among arms [3]: smallest increase
